How the values were obtained:
Type in all cases: functional
MCF7 [1] = assay: Cell cycle arrest in human MCF7 cells assessed as accumulation at G1 phase at 4 uM after 24 hrs using propidium iodide staining by FACS analysis (reference value: 70%)
MCF7 [2] = assay: Cytotoxicity against human MCF7 cells assessed as cell viability at 4 uM after 48 hrs by MTT assay
MCF7 [3] = assay: Cell cycle arrest in human MCF7 cells assessed as accumulation at G2/M phase at 4 uM after 24 hrs using propidium iodide staining by FACS analysis (reference value: 19%)
MCF7 [4] = assay: Cell cycle arrest in human MCF7 cells assessed as accumulation at S phase at 4 uM after 24 hrs using propidium iodide staining by FACS analysis (reference value: 11%)
MCF7 [5] = assay: Cytotoxicity against human MCF7 cells assessed as cell viability at 2 uM after 48 hrs by MTT assay

Row | Compound | Activity (MCF7 [1]) | OD (MCF7 [2]) | Activity (MCF7 [3]) | Activity (MCF7 [4]) | OD (MCF7 [5])
1 | Cc1cc(C#Cc2ccc(C(C)(C)C)cc2)ccc1-n1c(/C=C/c2cc(O)cc(O)c2)nc2ccccc2c1=O | 74% | 0.43 | 18% | 8% | 0.6
2 | Cc1cc(C#Cc2ccccc2)ccc1-n1c(/C=C/c2ccc(O)cc2)nc2ccccc2c1=O | 75% | 0.58 | 18% | 7% | 0.87
3 | COc1ccc2cc(C#Cc3ccc(-n4c(/C=C/c5cc(OC)c(OC)c(OC)c5)nc5ccccc5c4=O)c(C)c3)ccc2c1 | 72% | 0.58 | 21% | 7% | 0.57
4 | Cc1cc(C#Cc2ccccc2)ccc1-n1c(/C=C/c2ccc(O)c([N+](=O)[O-])c2)nc2ccccc2c1=O | 73% | 0.51 | 20% | 7% | 0.9
5 | COc1ccc2cc(C#Cc3ccc(-n4c(/C=C/c5ccc(F)cc5)nc5ccccc5c4=O)c(C)c3)ccc2c1 | 74% | 0.57 | 18% | 8% | 0.67
6 | Cc1cc(C#Cc2ccc(C(C)(C)C)cc2)ccc1-n1c(/C=C/c2ccc3ccccc3c2)nc2ccccc2c1=O | 72% | 0.61 | 20% | 8% | 0.92
7 | COc1ccc2cc(C#Cc3ccc(-n4c(/C=C/c5ccnc6ccccc56)nc5ccccc5c4=O)c(C)c3)ccc2c1 | 74% | 0.5 | 19% | 7% | 0.76
8 | Cc1cc(C#Cc2ccc(C(C)(C)C)cc2)ccc1-n1c(/C=C/c2ccc(Cl)cc2)nc2ccccc2c1=O |  | 0.59 |  |  | 0.71
9 | COc1cc(/C=C/c2nc3ccccc3c(=O)n2-c2ccc(C#Cc3ccc(C(C)(C)C)cc3)cc2C)cc(OC)c1OC | 14% | 0.55 | 78% | 8% | 0.74
10 | Cc1cc(C#Cc2ccccc2)ccc1-n1c(/C=C/c2ccc3ccccc3c2)nc2ccccc2c1=O | 68% | 0.43 | 24% | 8% | 0.97
11 | COc1cc(/C=C/c2nc3ccccc3c(=O)n2-c2ccc(C#Cc3ccccc3)cc2C)cc(OC)c1 | 73% | 0.61 | 19% | 8% | 0.93
12 | COc1ccc2cc(C#Cc3ccc(-n4c(/C=C/c5c(Cl)cccc5Cl)nc5ccccc5c4=O)c(C)c3)ccc2c1 | 68% | 0.63 | 24% | 8% | 0.77
13 | Cc1cc(C#Cc2ccc(C(C)(C)C)cc2)ccc1-n1c(/C=C/c2ccc3c(c2)OCO3)nc2ccccc2c1=O | 67% | 0.52 | 23% | 10% | 0.67
14 | COc1ccc(/C=C/c2nc3ccccc3c(=O)n2-c2ccc(C#Cc3ccccc3)cc2C)cc1 | 78% | 0.73 | 15% | 7% | 0.84
15 | Cc1cc(C#Cc2ccc(C(C)(C)C)cc2)ccc1-n1c(/C=C/c2ccc(O)cc2)nc2ccccc2c1=O | 74% | 0.52 | 19% | 7% | 0.71
16 | COc1ccc2cc(C#Cc3ccc(-n4c(/C=C/c5ccc([N+](=O)[O-])o5)nc5ccccc5c4=O)c(C)c3)ccc2c1 | 49% | 0.58 | 39% | 12% | 0.66
17 | Cc1cc(C#Cc2ccccc2)ccc1-n1c(/C=C/c2ccc([N+](=O)[O-])o2)nc2ccccc2c1=O |  | 0.37 |  |  | 0.88
